Measurements published in patent US9023398B2, “Method for improving the aqueous solubility of poorly-soluble substances” (Kabushiki Kaisha Sangi, priority 2009, dated 2015).

What was measured:
[1] = Dissolution test of poorly-soluble substances using distilled water; assay type: physicochemical
[2] = Dissolution test of poorly-soluble substances using 2nd fluid for disintegration test (pH 6.8) of the Japanese Pharmacopoeia; assay type: physicochemical
Protocol: From initiation of the test, the mixed solution was stirred with a stirrer having a length of 15 mm. The rotation number of the stirrer was 120 rpm, and all of the tests were conducted in a thermostat at 37±0.5° C. Two types of test solutions, namely, distilled water and 2nd fluid for disintegration test (pH 6.8) of the Japanese Pharmacopoeia were used. As such 2nd fluid for disintegration test of the Japanese Pharmacopoeia, a solution prepared by diluting the 10-fold concentration solution of Kanto Kagaku Co., Ltd. with distilled water was used.
A comparative test was carried out in the same manner as that described above with the exception that a poorly-soluble substance or the like was used in an amount equal to that of a substance with improved aqueous solubility, instead of the substance with improved aqueous solubility.
1 mL of the solution was sampled in an Eppendorf centrifuge tube, 1, 3, 10, 30, 60, 180 and 360 minutes after initiation of the test. The thus sampled solution was centrifuged at 12,000 rpm for 5 minutes. […] In the case of the comparative test, the poorly-soluble substance or the like, which had not been dissolved in the solution, was removed. An aliquot of this supernatant was immediately frozen. The frozen sample was freeze-dried, and it was then used as a sample in the measurement of the amount of the substance with improved aqueous solubility, which had been dissolved in the test solution. The dissolved poorly-soluble substance was measured mainly using a dual wavelength absorption photometer.

[3] = 2nd fluid for disintegration test, elution time 3 min
[4] = 2nd fluid for disintegration test, elution time 10 min
[5] = 2nd fluid for disintegration test, elution time 30 min
[6] = 2nd fluid for disintegration test, elution time 120 min
[7] = 2nd fluid for disintegration test, elution time 360 min
[8] = after dissolution test for 360 minutes, distilled water, 37±0.5° C.
[9] = 2nd fluid for disintegration test, elution time 1 min
[10] = after dissolution test for 360 minutes, Second disintegration test medium (pH 6.8), 37±0.5° C.

| Compound | Dissolved amount ([1]; water, elution time 3 min) | Dissolved amount ([1]; water, elution time 10 min) | Dissolved amount ([1]; water, elution time 30 min) | Dissolved amount ([1]; water, elution time 120 min) | Dissolved amount ([1]; water, elution time 360 min) | Dissolved amount [2, 3] | Dissolved amount [2, 4] | Dissolved amount [2, 5] | Dissolved amount [2, 6] | Dissolved amount [2, 7] | further results |
| --- | --- | --- | --- | --- | --- | --- | --- | --- | --- | --- | --- |
| CCS(=O)(=O)CCn1c([N+](=O)[O-])cnc1C [compound 25, Tinidazole] | 2973.2 µg/mL | 3880.0 µg/mL | 4558.1 µg/mL | 6034.2 µg/mL | 6207.6 µg/mL | 4613.3 µg/mL | 5425.9 µg/mL | 5825.0 µg/mL | 7003.0 µg/mL | 6133.3 µg/mL |  |
| CC(=O)Oc1ccccc1C(=O)O [Comparative Example 1-3, Aspirin] | 2934.9 µg/mL | 2985.3 µg/mL |  |  | 3110.4 µg/mL | 1020.4 µg/mL | 5352.3 µg/mL | 5963.6 µg/mL |  | 8552.7 µg/mL | Dissolved amount [1, 8]: 3110.4 µg/mL; Dissolved amount ([1]; water, elution time 1 min): 1831.9 µg/mL; Dissolved amount ([1]; water, elution time 60 min): 3105.7 µg/mL; Dissolved amount ([1]; water, elution time 180 min): 3108.1 µg/mL; Dissolved amount [2, 9]: 252.7 µg/mL; Dissolved amount ([2]; 2nd fluid for disintegration test, elution time 180 min): 6458.1 µg/mL; Dissolved amount [2, 10]: 6552.7 µg/mL |
| NC(N)=Nc1nc(CSCCC(N)=NS(N)(=O)=O)cs1 [Comparative Example 17, Famotidine] | 1416.8 µg/mL | 1502.6 µg/mL | 1566.8 µg/mL |  | 1497.4 µg/mL | 2286.6 µg/mL | 2541.7 µg/mL | 2600.9 µg/mL |  | 2410.4 µg/mL | Dissolved amount ([1]; water, elution time 1 min): 1162.9 µg/mL; Dissolved amount ([1]; water, elution time 60 min): 1565.8 µg/mL; Dissolved amount ([1]; water, elution time 180 min): 1509.8 µg/mL; Dissolved amount [2, 9]: 1980.2 µg/mL; Dissolved amount ([2]; 2nd fluid for disintegration test, elution time 60 min): 2667.9 µg/mL |
| O=[N+]([O-])O[C@H]1CO[C@H]2[C@@H]1OC[C@H]2O[N+](=O)[O-] [compound 30, Isosorbide Dinitrate] |  |  | 3490.4 µg/mL | 3516.8 µg/mL |  |  | 7154.4 µg/mL | 7134.1 µg/mL |  | 7148.8 µg/mL |  |
| COc1ccc2[nH]c([S+]([O-])Cc3ncc(C)c(OC)c3C)nc2c1 (centres unmarked) [4-1, Omeprazole] |  |  |  |  |  |  |  |  |  |  | Dissolved amount [1, 8]: 141.6 µg/mL; Dissolved amount [2, 10]: 169.9 µg/mL |
| CC1(C)[C@@H](O[C@H]2O[C@H](C(=O)O)[C@@H](O)[C@H](O)[C@H]2O[C@@H]2O[C@H](C(=O)O)[C@@H](O)[C@H](O)[C@H]2O)CC[C@]2(C)[C@H]3C(=O)C=C4[C@@H]5C[C@@](C)(C(=O)O)CC[C@]5(C)CC[C@@]4(C)[C@]3(C)CC[C@@H]12 [Comparative Example 16, Ammonium Glycyrrhizinate] | 4621.4 µg/mL |  | 6792.2 µg/mL |  | 8948.1 µg/mL | 7012.3 µg/mL | 9096.3 µg/mL |  |  |  | Dissolved amount ([1]; water, elution time 1 min): 2668.0 µg/mL; Dissolved amount ([1]; water, elution time 60 min): 7374.5 µg/mL; Dissolved amount ([1]; water, elution time 180 min): 8826.1 µg/mL; Dissolved amount [2, 9]: 5113.7 µg/mL |
| CC(C)NCC(O)COc1cccc2[nH]ccc12 (centres unmarked) [compound 42, Pindolol] |  |  |  |  |  |  |  |  |  |  | Dissolved amount ([1]; Pindolol, water, elution time 3 min): 53.1 µg/mL; Dissolved amount ([1]; Pindolol, water, elution time 10 min): 71.1 µg/mL; Dissolved amount ([1]; Pindolol, water, elution time 30 min): 77.8 µg/mL; Dissolved amount ([1]; Pindolol, water, elution time 120 min): 93.5 µg/mL; Dissolved amount ([1]; Pindolol, water, elution time 360 min): 93.6 µg/mL; Dissolved amount ([2]; Pindolol, 2nd fluid for disintegration test, elution time 3 min): 1394.9 µg/mL; Dissolved amount ([2]; Pindolol, 2nd fluid for disintegration test, elution time 10 min): 2837.9 µg/mL; Dissolved amount ([2]; Pindolol, 2nd fluid for disintegration test, elution time 30 min): 3212.1 µg/mL; Dissolved amount ([2]; Pindolol, 2nd fluid for disintegration test, elution time 120 min): 3624.7 µg/mL |
| C[C@]12C=CC(=O)C=C1CC[C@@H]1[C@@H]2[C@@H](O)C[C@@]2(C)[C@H]1CC[C@]2(O)C(=O)CO [compound 41, Prednisolone] |  |  |  |  |  |  |  |  |  |  | Dissolved amount ([1]; Prednisolone, water, elution time 10 min): 336.3 µg/mL; Dissolved amount ([1]; Prednisolone, water, elution time 30 min): 315.8 µg/mL; Dissolved amount ([1]; Prednisolone, water, elution time 120 min): 268.2 µg/mL; Dissolved amount ([1]; Prednisolone, water, elution time 360 min): 266.3 µg/mL; Dissolved amount ([2]; Prednisolone, 2nd fluid for disintegration test, elution time 3 min): 369.1 µg/mL; Dissolved amount ([2]; Prednisolone, 2nd fluid for disintegration test, elution time 10 min): 382.4 µg/mL; Dissolved amount ([2]; Prednisolone, 2nd fluid for disintegration test, elution time 30 min): 310.8 µg/mL; Dissolved amount ([2]; Prednisolone, 2nd fluid for disintegration test, elution time 120 min): 265.5 µg/mL; Dissolved amount ([2]; Prednisolone, 2nd fluid for disintegration test, elution time 360 min): 257.9 µg/mL |
| Oc1ncnc2[nH]ncc12 [compound 39, Allopurinol] |  |  |  |  |  |  |  |  |  |  | Dissolved amount ([1]; Allopurinol, water, elution time 3 min): 578.2 µg/mL; Dissolved amount ([1]; Allopurinol, water, elution time 10 min): 679.4 µg/mL; Dissolved amount ([1]; Allopurinol, water, elution time 30 min): 773.9 µg/mL; Dissolved amount ([1]; Allopurinol, water, elution time 120 min): 741.5 µg/mL; Dissolved amount ([1]; Allopurinol, water, elution time 360 min): 712.5 µg/mL; Dissolved amount ([2]; Allopurinol, 2nd fluid for disintegration test, elution time 3 min): 565.4 µg/mL; Dissolved amount ([2]; Allopurinol, 2nd fluid for disintegration test, elution time 10 min): 672.6 µg/mL; Dissolved amount ([2]; Allopurinol, 2nd fluid for disintegration test, elution time 30 min): 725.7 µg/mL; Dissolved amount ([2]; Allopurinol, 2nd fluid for disintegration test, elution time 120 min): 722.8 µg/mL; Dissolved amount ([2]; Allopurinol, 2nd fluid for disintegration test, elution time 360 min): 696.1 µg/mL |
| CC[C@H]1OC(=O)[C@H](C)[C@@H](O[C@H]2C[C@@](C)(OC)[C@@H](O)[C@H](C)O2)[C@H](C)[C@@H](O[C@@H]2O[C@H](C)C[C@H](N(C)C)[C@H]2O)[C@](C)(O)C[C@@H](C)C(=O)[C@H](C)[C@@H](O)[C@]1(C)O [compound 28, Erythromycin] | 635.0 µg/mL | 861.6 µg/mL | 944.7 µg/mL | 927.7 µg/mL | 846.1 µg/mL |  | 4984.2 µg/mL | 5103.6 µg/mL | 5904.1 µg/mL | 6044.7 µg/mL |  |
| CCn1cc(C(=O)O)c(=O)c2cc(F)c(N3CCNCC3)cc21 [compound 27, Norfloxacin] | 455.9 µg/mL | 523.1 µg/mL | 492.3 µg/mL | 470.7 µg/mL | 395.5 µg/mL | 688.7 µg/mL | 767.1 µg/mL | 744.1 µg/mL | 721.6 µg/mL | 694.7 µg/mL |  |
| NC(=O)N1c2ccccc2C=Cc2ccccc21 [compound 22, Carbamazepine] | 291.2 µg/mL | 234.8 µg/mL | 214.3 µg/mL | 159.5 µg/mL | 153.0 µg/mL | 346.6 µg/mL | 352.2 µg/mL | 413.9 µg/mL | 282.1 µg/mL | 199.3 µg/mL |  |
| Nc1ncnc2nc[nH]c12 [compound 45, Adenine] |  |  |  |  |  |  |  |  |  |  | Dissolved amount ([1]; Adenine, water, elution time 3 min): 1478.0 µg/mL; Dissolved amount ([1]; Adenine, water, elution time 10 min): 1557.3 µg/mL; Dissolved amount ([1]; Adenine, water, elution time 30 min): 1646.6 µg/mL; Dissolved amount ([1]; Adenine, water, elution time 360 min): 1696.4 µg/mL; Dissolved amount ([2]; Adenine, 2nd fluid for disintegration test, elution time 3 min): 1752.2 µg/mL; Dissolved amount ([2]; Adenine, 2nd fluid for disintegration test, elution time 10 min): 2028.0 µg/mL; Dissolved amount ([2]; Adenine, 2nd fluid for disintegration test, elution time 30 min): 2001.9 µg/mL; Dissolved amount ([2]; Adenine, 2nd fluid for disintegration test, elution time 120 min): 2001.4 µg/mL; Dissolved amount ([2]; Adenine, 2nd fluid for disintegration test, elution time 360 min): 1876.8 µg/mL |
| CC(=O)Nc1nnc(S(N)(=O)=O)s1 [compound 23, Acetazolamide] | 1040.6 µg/mL | 1238.7 µg/mL | 1244.8 µg/mL | 1251.4 µg/mL | 1212.0 µg/mL | 1331.6 µg/mL |  |  | 1721.6 µg/mL | 1654.9 µg/mL |  |
| CN/C(=N/CCSCc1nc[nH]c1C)NC#N [compound 19, Cimetidine] |  |  |  |  |  | 8676.7 µg/mL |  |  | 9475.2 µg/mL | 8810.0 µg/mL | Dissolved amount ([1]; Dissolution test using water, elution time 10 min): 8160.2 µg/mL; Dissolved amount ([1]; Dissolution test using water, elution time 30 min): 7564.5 µg/mL; Dissolved amount ([1]; Dissolution test using water, elution time 120 min): 7898.3 µg/mL; Dissolved amount ([1]; Dissolution test using water, elution time 360 min): 7166.4 µg/mL |
